Source: ChEMBL document CHEMBL4428063, “Novel Pyrimidine Toll-like Receptor 7 and 8 Dual Agonists to Treat Hepatitis B Virus” (J Med Chem, 2016)
Active and inactive are the calls of the source. No cut-off for these calls is given here.

What was measured:
[1] = Intrinsic clearance in cynomolgus monkey liver microsomes assessed per mg protein at 1 uM measured after 60 mins; type: ADME, Macaca fascicularis, Microsome; conditions: read-out: CLH
[2] = molecular target: T1, Toll-like receptor 1 (Homo sapiens) (UniProt Q15399); test: Agonist activity at wild-type human TLR1 expressed in HEK293 cells up to 25 uM measured after 6 hrs by NF-kappaB luciferase reporter gene assay; type: cell-based
T1 sequence (whole entry): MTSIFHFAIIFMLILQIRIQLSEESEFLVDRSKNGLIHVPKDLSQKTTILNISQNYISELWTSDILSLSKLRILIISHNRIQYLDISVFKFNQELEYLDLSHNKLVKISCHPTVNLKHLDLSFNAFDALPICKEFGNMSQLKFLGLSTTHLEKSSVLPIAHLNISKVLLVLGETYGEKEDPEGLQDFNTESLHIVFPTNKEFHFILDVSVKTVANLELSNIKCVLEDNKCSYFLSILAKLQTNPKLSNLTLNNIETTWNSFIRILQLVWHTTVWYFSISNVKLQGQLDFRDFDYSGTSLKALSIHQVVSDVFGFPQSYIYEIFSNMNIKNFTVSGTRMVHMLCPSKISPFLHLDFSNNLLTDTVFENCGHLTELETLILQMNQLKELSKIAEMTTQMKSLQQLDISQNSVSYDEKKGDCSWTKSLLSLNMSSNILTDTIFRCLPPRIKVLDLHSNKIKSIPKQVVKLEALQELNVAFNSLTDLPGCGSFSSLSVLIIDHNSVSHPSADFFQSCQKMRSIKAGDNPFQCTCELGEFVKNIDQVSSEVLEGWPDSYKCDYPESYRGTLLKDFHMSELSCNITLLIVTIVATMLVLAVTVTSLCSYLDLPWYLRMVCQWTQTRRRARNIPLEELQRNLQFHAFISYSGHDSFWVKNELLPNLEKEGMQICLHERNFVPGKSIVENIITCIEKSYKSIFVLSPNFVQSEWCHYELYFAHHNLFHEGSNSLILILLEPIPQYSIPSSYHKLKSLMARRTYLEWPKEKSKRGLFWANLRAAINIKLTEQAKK

[3] = Oral bioavailability in cynomolgus monkey at 30 mg/kg, measured after 24 hrs; type: ADME, organism-based, Macaca fascicularis; conditions: in vivo
[4] = molecular target: Toll-like receptor 4 (Homo sapiens) (UniProt O00206); test: Agonist activity at wild-type human TLR4 expressed in HEK293 cells up to 25 uM measured after 6 hrs by NF-kappaB luciferase reporter gene assay; type: cell-based
[5] = Intrinsic clearance in C57Bl/6 mouse liver microsomes assessed per mg protein at 1 uM measured after 60 mins; type: ADME, Microsome; conditions: read-out: CLH
[6] = Intrinsic clearance in Sprague-Dawley rat hepatocytes at 1 uM measured after 120 mins; type: ADME, cell-based, Hepatocyte; conditions: 2 h
[7] = molecular target: T2, Toll-like receptor 8 (Homo sapiens) (UniProt Q9NR97); test: Agonist activity at human TLR8 expressed in HEK293 cells assessed as measured after 6 hrs by NF-kappaB luciferase reporter gene assay; type: cell-based
T2 sequence (whole entry): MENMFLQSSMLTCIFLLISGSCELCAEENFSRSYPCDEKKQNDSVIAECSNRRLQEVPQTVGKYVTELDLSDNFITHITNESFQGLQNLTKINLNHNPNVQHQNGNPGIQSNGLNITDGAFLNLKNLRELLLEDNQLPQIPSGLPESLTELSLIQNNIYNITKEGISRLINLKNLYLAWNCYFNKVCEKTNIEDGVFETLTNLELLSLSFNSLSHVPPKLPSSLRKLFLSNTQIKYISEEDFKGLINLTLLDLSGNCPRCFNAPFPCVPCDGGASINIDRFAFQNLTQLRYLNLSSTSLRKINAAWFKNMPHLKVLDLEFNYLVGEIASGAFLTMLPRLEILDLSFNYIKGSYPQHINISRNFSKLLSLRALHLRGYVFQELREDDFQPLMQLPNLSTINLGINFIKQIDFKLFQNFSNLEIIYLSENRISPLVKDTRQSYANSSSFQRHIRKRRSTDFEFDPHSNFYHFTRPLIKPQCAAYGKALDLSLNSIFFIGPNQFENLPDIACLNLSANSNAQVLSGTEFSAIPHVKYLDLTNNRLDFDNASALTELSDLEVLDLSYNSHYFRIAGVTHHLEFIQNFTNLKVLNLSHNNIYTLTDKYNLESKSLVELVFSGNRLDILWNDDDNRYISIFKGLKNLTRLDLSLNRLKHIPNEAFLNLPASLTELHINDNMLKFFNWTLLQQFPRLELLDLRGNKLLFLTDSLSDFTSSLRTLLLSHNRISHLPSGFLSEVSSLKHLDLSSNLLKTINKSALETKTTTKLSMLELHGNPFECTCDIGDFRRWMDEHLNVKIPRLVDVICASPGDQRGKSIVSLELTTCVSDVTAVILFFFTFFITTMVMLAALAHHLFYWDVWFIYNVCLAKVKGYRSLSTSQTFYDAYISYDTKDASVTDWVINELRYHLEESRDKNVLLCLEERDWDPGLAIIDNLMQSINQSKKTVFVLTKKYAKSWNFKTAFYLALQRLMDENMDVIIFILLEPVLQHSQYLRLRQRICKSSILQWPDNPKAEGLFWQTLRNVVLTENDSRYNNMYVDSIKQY

[8] = Intrinsic clearance in dog hepatocytes at 1 uM measured after 120 mins; type: ADME, cell-based, Canis lupus familiaris, Hepatocyte; conditions: 2 h
[9] = molecular target: Toll-like receptor 2 (Homo sapiens) (UniProt O60603); test: Agonist activity at wild-type human TLR2 expressed in HEK293 cells up to 25 uM measured after 6 hrs by NF-kappaB luciferase reporter gene assay; type: cell-based
[10] = Tmax in Sprague-Dawley rat plasma at 10 mg/kg, po; type: ADME, organism-based
[11] = Intrinsic clearance in human liver microsomes assessed per mg protein at 1 uM measured after 60 mins; type: ADME, Microsome; conditions: read-out: CLH
[12] = Fraction absorbed in Sprague-Dawley rat plasma at 10 mg/kg, po; type: ADME, organism-based; conditions: read-out: Fabs
[13] = Cmax in cynomolgus monkey plasma at 9 mg/kg, administered through oral gavage measured after 24 hrs; type: ADME, organism-based, Macaca fascicularis; parameters: dose 9 mg/kg, route oral
[14] = Tmax in cynomolgus monkey plasma at 9 mg/kg, administered through oral gavage measured after 24 hrs; type: ADME, organism-based, Macaca fascicularis
[15] = Tmax in cynomolgus monkey plasma at 3 mg/kg, administered through oral gavage measured after 24 hrs; type: ADME, organism-based, Macaca fascicularis
[16] = Cmax in Sprague-Dawley rat liver at 10 mg/kg, po; type: ADME, organism-based; parameters: dose 10 mg/kg, route oral
[17] = molecular target: Toll-like receptor 3 (Homo sapiens) (UniProt O15455); test: Agonist activity at wild-type human TLR3 expressed in HEK293 cells up to 25 uM measured after 6 hrs by NF-kappaB luciferase reporter gene assay; type: cell-based
[18] = AUC(0 to last) in cynomolgus monkey plasma at 30 mg/kg, administered through oral gavage measured after 24 hrs; type: ADME, organism-based, Macaca fascicularis; parameters: dose 30 mg/kg, time 0 - last, route oral
[19] = Intrinsic clearance in cynomolgus monkey hepatocytes at 1 uM measured after 120 mins; type: ADME, cell-based, Macaca fascicularis, Hepatocyte; conditions: 2 h
[20] = Cmax in cynomolgus monkey plasma at 3 mg/kg, administered through oral gavage measured after 24 hrs; type: ADME, organism-based, Macaca fascicularis; parameters: dose 3 mg/kg, route oral
[21] = Cmax in Sprague-Dawley rat plasma at 10 mg/kg, po; type: ADME, organism-based; parameters: dose 10 mg/kg, route oral
[22] = Cmax in cynomolgus monkey plasma at 30 mg/kg, administered through oral gavage measured after 24 hrs; type: ADME, organism-based, Macaca fascicularis; parameters: dose 30 mg/kg, route oral
[23] = Tmax in C57Bl/6 mouse at 1 to 50 mg/kg, po; type: ADME, organism-based; conditions: in vivo

Chain of Toll-like receptor 3 (Homo sapiens) (O15455 whole entry): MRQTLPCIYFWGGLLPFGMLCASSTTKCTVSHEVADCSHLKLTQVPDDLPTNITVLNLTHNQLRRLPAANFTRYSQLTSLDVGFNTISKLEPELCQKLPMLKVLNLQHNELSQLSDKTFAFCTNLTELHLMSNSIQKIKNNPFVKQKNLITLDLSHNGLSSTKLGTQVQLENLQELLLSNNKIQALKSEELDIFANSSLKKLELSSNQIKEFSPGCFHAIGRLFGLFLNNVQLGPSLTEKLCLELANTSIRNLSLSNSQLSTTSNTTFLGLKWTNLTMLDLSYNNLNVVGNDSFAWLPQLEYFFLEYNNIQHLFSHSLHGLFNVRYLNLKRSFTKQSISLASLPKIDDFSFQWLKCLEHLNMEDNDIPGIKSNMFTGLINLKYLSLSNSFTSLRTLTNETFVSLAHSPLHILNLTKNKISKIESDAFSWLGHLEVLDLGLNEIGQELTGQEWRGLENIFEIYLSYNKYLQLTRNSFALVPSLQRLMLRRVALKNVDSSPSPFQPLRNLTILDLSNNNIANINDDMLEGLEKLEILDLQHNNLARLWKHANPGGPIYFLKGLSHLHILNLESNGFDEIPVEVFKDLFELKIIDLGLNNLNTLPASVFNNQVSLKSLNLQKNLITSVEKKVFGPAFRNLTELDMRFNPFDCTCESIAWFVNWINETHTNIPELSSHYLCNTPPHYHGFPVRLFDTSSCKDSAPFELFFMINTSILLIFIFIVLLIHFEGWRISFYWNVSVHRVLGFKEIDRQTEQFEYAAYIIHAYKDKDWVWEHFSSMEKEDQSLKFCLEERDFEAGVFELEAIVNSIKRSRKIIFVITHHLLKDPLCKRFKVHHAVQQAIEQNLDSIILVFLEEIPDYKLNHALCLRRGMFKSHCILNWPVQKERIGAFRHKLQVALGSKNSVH
Chain of Toll-like receptor 2 (Homo sapiens) (O60603 whole entry): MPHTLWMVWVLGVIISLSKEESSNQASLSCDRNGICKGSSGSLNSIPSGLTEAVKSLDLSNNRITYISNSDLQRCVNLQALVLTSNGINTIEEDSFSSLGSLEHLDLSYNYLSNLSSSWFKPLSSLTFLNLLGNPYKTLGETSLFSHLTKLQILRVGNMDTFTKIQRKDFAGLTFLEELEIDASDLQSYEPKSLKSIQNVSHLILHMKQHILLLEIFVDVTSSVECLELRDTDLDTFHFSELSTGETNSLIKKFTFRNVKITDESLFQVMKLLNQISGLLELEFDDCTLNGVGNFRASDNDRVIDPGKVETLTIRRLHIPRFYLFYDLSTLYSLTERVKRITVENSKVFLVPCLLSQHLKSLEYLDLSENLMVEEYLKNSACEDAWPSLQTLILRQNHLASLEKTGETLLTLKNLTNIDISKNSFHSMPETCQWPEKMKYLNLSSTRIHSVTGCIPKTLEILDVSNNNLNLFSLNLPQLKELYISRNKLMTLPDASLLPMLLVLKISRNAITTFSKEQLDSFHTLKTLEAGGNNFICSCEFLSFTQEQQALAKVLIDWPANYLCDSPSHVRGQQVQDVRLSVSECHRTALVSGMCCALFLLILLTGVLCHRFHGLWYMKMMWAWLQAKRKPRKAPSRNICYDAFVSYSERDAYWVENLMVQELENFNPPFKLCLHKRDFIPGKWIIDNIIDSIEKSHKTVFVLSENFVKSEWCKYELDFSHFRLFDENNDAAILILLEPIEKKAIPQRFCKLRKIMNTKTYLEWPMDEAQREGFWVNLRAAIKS
Chain of Toll-like receptor 4 (Homo sapiens) (O00206 whole entry): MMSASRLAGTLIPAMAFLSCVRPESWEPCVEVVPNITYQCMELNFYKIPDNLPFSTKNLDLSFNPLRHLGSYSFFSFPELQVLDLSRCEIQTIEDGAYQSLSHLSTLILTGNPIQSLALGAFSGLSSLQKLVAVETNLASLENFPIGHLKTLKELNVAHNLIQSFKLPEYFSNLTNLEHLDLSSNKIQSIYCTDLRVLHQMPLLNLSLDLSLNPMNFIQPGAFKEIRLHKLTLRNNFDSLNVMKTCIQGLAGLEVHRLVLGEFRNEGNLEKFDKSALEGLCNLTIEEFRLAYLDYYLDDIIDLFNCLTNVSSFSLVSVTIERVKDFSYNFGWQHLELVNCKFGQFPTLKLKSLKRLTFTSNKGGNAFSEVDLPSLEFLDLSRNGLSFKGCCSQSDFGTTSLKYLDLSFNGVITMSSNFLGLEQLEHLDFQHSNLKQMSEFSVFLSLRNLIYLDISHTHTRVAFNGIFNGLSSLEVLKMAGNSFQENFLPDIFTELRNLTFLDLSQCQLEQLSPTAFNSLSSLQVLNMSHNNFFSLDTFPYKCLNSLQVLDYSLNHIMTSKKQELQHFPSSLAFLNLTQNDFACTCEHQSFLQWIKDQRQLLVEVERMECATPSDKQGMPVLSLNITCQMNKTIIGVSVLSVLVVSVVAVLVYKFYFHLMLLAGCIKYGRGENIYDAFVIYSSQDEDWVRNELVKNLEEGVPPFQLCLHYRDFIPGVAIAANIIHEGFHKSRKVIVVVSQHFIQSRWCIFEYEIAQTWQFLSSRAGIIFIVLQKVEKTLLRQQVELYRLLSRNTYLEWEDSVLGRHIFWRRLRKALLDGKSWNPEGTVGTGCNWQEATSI

For `CCCC[C@@H](CCO)Nc1nc(N)ncc1OC`, the microsomal CLint at 1 µM [1] was 8 µL/min/mg, the Activity [2] was “inactive” and the bioavailability [3] was 3.9%. For the same compound, the Activity [4] was “inactive”, the microsomal CLint at 1 µM [5] was 5 µL/min/mg and the CLH [6] was 68 µL/min. The LED [7] was 1.6 µM, the CLH [8] was 99 µL/min and the Activity [9] was “inactive”. It also gave a Tmax [10] of 1 h, a microsomal CLint at 1 µM [11] of less than 4 µL/min/mg and a Fa [12] of 55%. The Cmax [13] was 34 ng/mL, the Tmax [14] was 0.5 to 2 h and the Tmax [15] was 1 h. For the same compound, the Cmax [16] was 1710 ng/g, the Activity [17] was “inactive” and the AUC(0-t) at 24 h [18] was 583 ng·h/mL. It also gave a CLH [19] of 103 µL/min, a Cmax [20] of 7 ng/mL and a Cmax [21] of 65 ng/mL. For the same compound, the Cmax [22] was 355 ng/mL and the Tmax [23] was 0.5 to 1 h.
